Experimental data published in PubChem BioAssay (NCI).
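Briefly, cells in 96-well plates were exposed to five compound concentrations for 48 h, and endpoints were estimated by linear interpolation. The concentration for 50% growth inhibition is given as GI50. TGI denotes the concentration required for complete inhibition of growth.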

Columns and labels:
Experiment in all cases: growth of human tumour cells (NCI), 48 h
UACC-62 melanoma = system: UACC-62 melanoma
U251 CNS = system: U251 CNS
LOX IMVI melanoma = system: LOX IMVI melanoma
SF-539 CNS = system: SF-539 CNS
SW-620 colon = system: SW-620 colon
MALME-3M melanoma = system: MALME-3M melanoma
MDA-MB-231 breast = system: MDA-MB-231 breast
A549 NSCLC = system: A549 NSCLC
HOP-92 NSCLC = system: HOP-92 NSCLC
M14 melanoma = system: M14 melanoma

SMILES	TGI (UACC-62 melanoma)	TGI (U251 CNS)	TGI (LOX IMVI melanoma)	TGI (SF-539 CNS)	TGI (SW-620 colon)	TGI (MALME-3M melanoma)	TGI (MDA-MB-231 breast)	TGI (A549 NSCLC)	TGI (HOP-92 NSCLC)	TGI (M14 melanoma)	GI50 (UACC-62 melanoma)	GI50 (U251 CNS)	GI50 (LOX IMVI melanoma)	GI50 (SF-539 CNS)	GI50 (SW-620 colon)	GI50 (MALME-3M melanoma)	GI50 (MDA-MB-231 breast)	GI50 (A549 NSCLC)	GI50 (HOP-92 NSCLC)	GI50 (M14 melanoma)
O=C1C=C(Br)c2c(-c3ccccc3)oc3cccc1c23	> 100 µM	> 100 µM	> 65.4 µM	> 94.2 µM	> 100 µM	> 100 µM	78.2 µM	> 100 µM	> 100 µM	98.2 µM	–	–	–	–	–	–	–	–	–	–
O=C(N/N=C/c1ccc2c(c1)CCC2)c1ccccc1O	70.5 µM	33.7 µM	> 100 µM	65.8 µM	> 100 µM	61.5 µM	58.6 µM	57.5 µM	65.3 µM	> 100 µM	–	–	–	–	–	–	–	–	–	–
COc1cccc(C=Nc2cc(C)ccn2)c1O.COc1cccc(C=Nc2cc(C)ccn2)c1O.[Cu]	31.9 µM	51.1 µM	30.9 µM	42.9 µM	51.9 µM	31.7 µM	50.4 µM	90.1 µM	50.6 µM	39.1 µM	15.8 µM	15.7 µM	8.53 µM	17 µM	18.3 µM	16.6 µM	23.2 µM	27.8 µM	30.3 µM	12.7 µM
C[C@]12CCC3[C@@H](CC[C@@H]4c5nonc5CC[C@]34C)C1CCC(=O)N2 (stereo partly drawn)	> 100 µM	> 100 µM	> 100 µM	> 100 µM	> 100 µM	> 100 µM	> 100 µM	> 100 µM	> 95.1 µM	> 100 µM	> 84 µM	–	–	–	–	–	> 100 µM	–	40.4 µM	–
COc1ccc2cc(-c3ccoc(=O)c3-c3cc(OC)c(OC)c(OC)c3)ccc2c1	> 100 µM	> 100 µM	> 100 µM	> 100 µM	> 100 µM	> 100 µM	> 100 µM	> 100 µM	> 100 µM	> 100 µM	0.0536 µM	0.112 µM	1.15 µM	0.266 µM	0.0455 µM	> 100 µM	0.148 µM	0.0775 µM	2.49 µM	0.0681 µM
COC(=O)C(Cc1ccccc1)NC(=O)NC(=O)NC(=O)CI (stereo not drawn)	26 µM	30.5 µM	3.23 µM	24.9 µM	21.7 µM	3.34 µM	20.1 µM	38.9 µM	5.51 µM	7.45 µM	12.3 µM	16.6 µM	1.56 µM	11.8 µM	5.95 µM	1.55 µM	5.2 µM	20.2 µM	2.51 µM	2.51 µM
COc1cc2c(cc1OCCCCOc1cc3c(cc1OC)C(=O)N1CCC[C@H]1CN3)N=C[C@@H]1CCCN1C2=O	3.03 µM	> 100 µM	> 32.5 µM	2.89 µM	> 22.9 µM	4.1 µM	5.26 µM	> 100 µM	3.3 µM	7.19 µM	1.3 µM	0.392 µM	1.07 µM	0.419 µM	0.931 µM	1.47 µM	1.05 µM	9.21 µM	0.366 µM	2.37 µM
CN(C)c1ccc2c(c1)Sc1cc(N(C)C)ccc1N2C(=O)c1ccccc1	> 100 µM	> 100 µM	> 100 µM	> 100 µM	> 100 µM	77.1 µM	> 100 µM	> 100 µM	89.9 µM	> 100 µM	17.5 µM	45.5 µM	24.2 µM	38.2 µM	71.6 µM	21.4 µM	64.2 µM	32.5 µM	5.04 µM	75 µM
CN(C)c1ccc(/C=C\c2cccc[n+]2C)cc1	58 µM	> 100 µM	36.6 µM	> 100 µM	> 100 µM	> 100 µM	93.2 µM	> 100 µM	32.8 µM	> 100 µM	19.8 µM	4.89 µM	5.31 µM	12.3 µM	3.57 µM	15.6 µM	13.7 µM	1.73 µM	4.85 µM	10.7 µM
C=CC(=O)N(C)[C@H]1C[C@H]2OC(C)(C1OC)n1c3ccccc3c3c4c(c5c6ccccc6n2c5c31)C(=O)NC4 (stereo partly drawn)	0.835 µM	0.913 µM	0.67 µM	0.379 µM	0.792 µM	0.449 µM	1.04 µM	> 20 µM	0.266 µM	1.74 µM	0.13 µM	0.123 µM	0.0823 µM	0.083 µM	0.0514 µM	0.0706 µM	0.0783 µM	0.0938 µM	0.0402 µM	0.115 µM
O=[N+]([O-])c1cccc(-c2nc3sccn3c2-c2ccnc(NCCCNS(=O)(=O)c3cccc(F)c3)n2)c1	4.26 µM	39.4 µM	11 µM	20.8 µM	> 100 µM	7.06 µM	27.2 µM	24.3 µM	30.3 µM	12 µM	1.16 µM	4.56 µM	2.58 µM	4.04 µM	4.12 µM	2.14 µM	6.41 µM	2.68 µM	2.8 µM	2.82 µM
Cc1cc(N/N=C/c2nc(-c3ccc(Br)cc3)oc2C)c2cc(Cl)ccc2n1	> 100 µM	> 100 µM	> 100 µM	> 100 µM	> 100 µM	> 100 µM	> 100 µM	> 100 µM	> 100 µM	> 100 µM	> 100 µM	> 100 µM	> 100 µM	> 100 µM	> 100 µM	> 100 µM	> 100 µM	> 100 µM	> 100 µM	> 100 µM
Cc1ccc(-c2cc(-c3ccc(C)cc3)nc(NCCNc3ccnc4cc(Cl)ccc34)n2)cc1	3.38 µM	3.36 µM	3.71 µM	3.6 µM	3.49 µM	3.52 µM	3.67 µM	3.53 µM	2.73 µM	3.65 µM	1.77 µM	1.72 µM	1.83 µM	1.91 µM	1.71 µM	1.82 µM	1.88 µM	1.74 µM	1.23 µM	1.78 µM
